Legend:
[1] = tested on: voltage-gated sodium channels; experiment: Intracellular calcium measurement (Fluo-3AM, FLIPR) in human neuroprogenitor cells; type: cell-based; conditions: 30 μM veratridine, 96-well plates
Method: In this experiment, human neuroprogenitor cells were seeded in 96-well plates and incubated with dye loading medium containing 2 μM Fluo-3AM and 0.04% pluronic acid in Locke's buffer. After 45 minutes of incubation, the neuroprogenitor cells were gently washed three times in fresh Locke's buffer. Following the final wash, 150 μl of Locke's buffer was added to each well and the plate was transferred to the FLIPR® incubation chamber (Molecular Devices). […] These cells can therefore be used to determine the effect of an antagonist or agonist on calcium uptake or whether an agent is a likely antagonist or agonist of calcium uptake.

NEP cells [2] = experiment: Plating efficiency of subcultured NEP cells (day 1); type: cell-based, human; conditions: for plating efficiency versus control: NEP after 6 months in LIF supplemented culture; for effect on plating efficiency / plating efficiency: early NEP cells (1 mo)
Method: (§1) Effect of LIF and bFGF on subcultured NEP cells. Two groups of cultured NEP cells, one less than 1 month (<1 mo) and the other approximately 6 months (6 mo) in NB27 (described in previous section), were dissociated by 0.05% trypsin to obtain a single-cell suspension, and 50,000 cells/cm^2 were plated in one of the subculture media on polyornithine and laminin-coated dishes. Two concentrations of two growth factors (LIF; 0 or 10 ng/ml and bFGF; 0 or 20 ng/ml) in NB27, were applied to cells. Cells were harvested from each group and nuclei were counted by flow cytometry on days 1 and 14. Plating efficiency rate was calculated as the ratio of cells harvested to cells plated on day 1. Proliferation was measured on day 14. For each replicate, counted nuclei from the four treatment groups were added to obtain an overall total. The total cell number within each group was then divided by the overall total cell number and expressed as a percent.

NEP cells [3] = experiment: Proliferation of subcultured NEP cells (nuclei count by flow cytometry, day 14); type: cell-based, human; conditions: for proliferation rate: long term cultured NEP cells (6 mo)
Method: as §1

OLIG2 expression = experiment: OLIG2 gene expression by real time RT-PCR in NEP; type: cell-based; conditions: human NEP, FIG. 2A
Description: The motor neuron progenitor gene, OLIG2, is expressed early in motor neuron induction. Novitch, et al., Neuron, 31(5), 773-89 (2001). […] Subsequently, we examined expression of the motor neuron gene HLBX9 to investigate the effect of Shh and RA on motor neuron differentiation. Based on the OLIG2 results, bFGF was included at the time of RA or RA plus Shh exposure. The combination of RA and bFGF produced a 2·20 fold increased in HLBX9 expression level, and combining bFGF, Shh and RA increased HLBX9 expression 8·49 fold higher than bFGF alone in human NEP (FIG. 2B).

Molecule	elevation of intracellular [Ca2+] [1]	plating efficiency versus control (NEP cells [2])	effect on plating efficiency (NEP cells [2])	plating efficiency (NEP cells [2])	effect on proliferation of NEP cells (NEP cells [3]; early NEP cells (1 mo), in presence or absence of bFGF)	proliferation rate (NEP cells [3])	OLIG2 expression change (OLIG2 expression)	cell proliferation (group cell number as percent of overall total) (NEP cells [3]; early NEP cells (1 mo), day 14, bFGF 20 ng/ml, control 8.9%) [%]
COc1ccc(C(=O)O[C@H]2CC[C@@]3(C)[C@@H]4CC[C@H]5[C@]6(O)C[C@H](O)[C@@]7(O)[C@@H](CN8C[C@@H](C)CC[C@H]8[C@@]7(C)O)[C@]6(O)C[C@@]53O[C@]24O)cc1OC [veratridine]	~145 % of control							
LIF: Leukemia Inhibitory Factor, growth factor		higher plating efficiency than the control	no effect	about 50%	no effect	increased proliferation rate		
bFGF: basic fibroblast growth factor, growth factor		higher plating efficiency than the control	no effect	about 50%		increased proliferation rate	significantly increased	38.5

Source: US8178089B2, “Neuronal progenitors from feeder-free human embryonic stem cell culture” (The University of Georgia Research Foundation, Inc, priority 2004, dated 2012)
